Test results as given in US20260102422A1, “4'-HALOGEN CONTAINING NUCLEOTIDE AND NUCLEOSIDE THERAPEUTIC COMPOSITIONS AND USES RELATED THERETO” (priority 2019, published 2026).

Assays:
MERS = test: microbe, parasite or virus in culture; format: cell-based, Middle East Respiratory Syndrome coronavirus
HCoV-beta OC43 = HCoV-beta OC43 antiviral assay; format: cell-based; conditions: Betacoronavirus 1; strain OC43; RD cells
HCoV-alpha 229E = HCoV-alpha 229E antiviral assay; format: cell-based, HCoV-229E; conditions: Human coronavirus 229E; strain 229E; Huh-7 cells
SARS = test: microbe, parasite or virus in culture; format: cell-based, SARS coronavirus; conditions: Severe acute respiratory syndrome coronavirus, Vero 76
in vitro = conditions: human
SARS-CoV-2 = test: microbe, parasite or virus in culture; format: cell-based; conditions: Severe acute respiratory syndrome coronavirus 2, Calu-3
[1] = Liver microsome stability, rat; conditions: rat liver microsomes, drug 1.00 μM
[2] = Liver microsome stability, human; conditions: human liver microsomes, drug 1.00 μM
[3] = Liver microsome stability, mouse; conditions: mouse liver microsomes, drug 1.00 μM
Plasma stability, mouse = conditions: drug 1.00 μM
Plasma stability, human = conditions: drug 1.00 μM
Plasma stability, rat = conditions: drug 1.00 μM
HBTECs = test: Cytotoxicity (CC50) in HBTECs; format: cell-based; conditions: Human, Respiratory Tract
Enterovirus-68 = Enterovirus-68 antiviral assay; format: cell-based; conditions: strain US/KY/14-18953; RD cells
BHK-T7 cells = test: Cytotoxicity (CC50) in BHK-T7 cells; format: cell-based; conditions: BHK-T7, Hamster, Kidney
HepG2/Gal* cells = test: Cytotoxicity (CC50) in HepG2/Gal* cells; format: cell-based; conditions: Human
Vero cells = conditions: green monkey
[4] = Cytotoxicity (CC50) in HeLa cells; format: cell-based; conditions: human, alongside antiviral assays
Huh-7 cells = test: Cytotoxicity (CC50) in Huh-7 cells; format: cell-based; conditions: Huh7, Human, Liver, n = 3
[5] = Ferret plasma PK, single dose; format: in vivo; conditions: ferrets; for AUC(0-inf) / Cmax / Tmax / half-life: plasma
IEC-6 cells = test: Cytotoxicity (CC50) in IEC-6 cells; format: cell-based; conditions: IEC-6, Rat, Small intestine
RAW264.7 cells = test: Cytotoxicity (CC50) in RAW264.7 cells; format: cell-based; conditions: RAW 264.7, Mouse, Macrophage
MA-104 cells = test: Cytotoxicity (CC50) in MA-104 cells; format: cell-based; conditions: MA-104, Monkey, Kidney, n = 2
HG23 cells = test: Cytotoxicity (CC50) in HG23 cells; format: cell-based; conditions: HG23, Human
Pichinde virus = format: cell-based
H9c2 cells = test: Cytotoxicity (CC50) in H9c2 cells; format: cell-based; conditions: H9c2, Rat, Heart
Measles = Measles antiviral assay; format: cell-based, measles virus; conditions: Measles morbillivirus; strain CC; Vero 76 cells
BxPC-3 cells = test: Cytotoxicity (CC50) in BxPC-3 cells; format: cell-based; conditions: BxPC-3, Human, Pancreas
[6] = Guinea pig plasma PK, single dose; format: in vivo; conditions: Guinea pigs
Mayaro = Mayaro antiviral assay; format: cell-based; conditions: strain BEAR 505411; Vero 76 cells
Poliovirus = test: microbe, parasite or virus in culture; format: cell-based; conditions: Enterovirus C, Vero 76
Lassa fever virus = test: organism not typed; format: cell-based
CEM cells = test: Cytotoxicity (CC50) in CEM cells; format: cell-based; conditions: Human, Lymphoid
BEAS-28/Gal* cells = test: Cytotoxicity (CC50) in BEAS-28/Gal* cells; format: cell-based; conditions: Human, Lung
A-204 cells = test: Cytotoxicity (CC50) in A-204 cells; format: cell-based; conditions: A204, Human, Muscle
Junin virus = test: microbe, parasite or virus in culture; format: cell-based; conditions: Mammarenavirus juninense
[7] = Cytotoxicity (CC50) in RD cells; format: cell-based, Human; conditions: human, RD cells, alongside antiviral assays
RD cells = test: Cytotoxicity (CC50) in RD cells; format: cell-based, Human; conditions: RD, Human, Muscle
Lujo = test: microbe, parasite or virus in culture; format: cell-based, Lujo virus; conditions: Mammarenavirus lujoense
BEAS-28 cells = test: Cytotoxicity (CC50) in BEAS-28 cells; format: cell-based; conditions: BEAS-28, Human, Lung
A549 cells = test: Cytotoxicity (CC50) in A549 cells; format: cell-based; conditions: A549, Human, Lung
EEEV = test: microbe, parasite or virus in culture; format: cell-based; conditions: Eastern equine encephalitis virus, Vero 76
MDCK cells = test: Cytotoxicity (CC50) in MDCK cells; format: cell-based; conditions: Canine, Kidney, n = 6
MDCK/Gal* cells = test: Cytotoxicity (CC50) in MDCK/Gal* cells; format: cell-based; conditions: Canine, Kidney
Machupo = test: microbe, parasite or virus in culture; format: cell-based, Machupo virus; conditions: Mammarenavirus machupoense
[8] = Mouse plasma PK, single dose; conditions: for AUC-INF/Dose / Cmax/Dose: CD-1 mice; for AUC(0-inf) / Cmax / half-life / Tmax: female, ICR (CD-1), mouse, plasma, po
[9] = guinea pig, 50 mg/kg PO, plasma

With `O=c1ccn([C@@H]2O[C@](F)(CO)[C@@H](O)[C@H]2O)c(=O)[nH]1` [EIDD-2749] the EC50 (MERS) was 5.7 µM, the EC90 (MERS; Middle East respiratory syndrome-related coronavirus, Vero 76) was 9.5 µM and the EC50 (HCoV-beta OC43) was 1.06 µM. The EC90 (HCoV-beta OC43) was 2.85 µM, the EC50 (HCoV-alpha 229E) was 1.67 µM and the EC90 (HCoV-alpha 229E) was 9.5 µM. For the same compound, the EC50 (SARS) was 14.1 µM, the CC50 (in vitro) was > 50 µM and the EC50 (SARS-CoV-2) was 1.9 µM.
With `O=c1ccn([C@@H]2O[C@](F)(COP3(=O)OCc4ccccc4O3)[C@@H](O)[C@H]2O)c(=O)[nH]1` (stereo partly shown) [EIDD-02838] the half-life [1] was 8 min, the “max [2749]” value ([1]; EIDD-2749 formed) was 0.218 µM and the half-life [2] was 0.12 h. For the same compound, the “max [2749]” value ([2]; EIDD-2749 formed) was 0.130 µM, the half-life [3] was 7 min and the “max [2749]” value ([3]; EIDD-2749 formed) was 0.0347 µM. For the same compound, the half-life (Plasma stability, mouse) was 1 min, the “max [2749]” value (Plasma stability, mouse; EIDD-2749 formed) was 0.0216 µM and the half-life (Plasma stability, human; 37° C) was 0.2 h. For the same compound, the “max [2749]” value (Plasma stability, human; EIDD-2749 formed) was 0.0521 µM, the half-life (Plasma stability, rat) was <1 min and the “max [2749]” value (Plasma stability, rat; EIDD-2749 formed) was 0.0341 µM.
With `O=c1ccn([C@@H]2O[C@](F)(CO)[C@@H](O)[C@H]2O)c(=O)[nH]1` [EIDD-02749, 1-[(2R, 3R, 4S, 5S)-5-fluoro-3,4-dihydroxy-5-(hydroxymethyl)tetrahydrofuran-2-yl]pyrimidine-2,4-dione] the “CC” value (HBTECs) was >500 µM, the EC90 (Enterovirus-68) was 1.06 µM and the “CC” value (BHK-T7 cells) was >500 µM. The “CC” value (HepG2/Gal* cells) was >400 µM, the “CC” value (Vero cells) was >380 µM and the CC50 [4] was 77 µM. The “CC” value (Huh-7 cells) was >400 µM, the AUC-INF/Dose ([5]; 15 mg/kg PO) was 2691.2 ± 483.7 h*kg*nmol/mL/mmol and the Cmax/Dose ([5]; 15 mg/kg PO) was 608.2 ± 114.0 kg*nmol/mL/mmol. It also gave an AUC(0-inf) ([5]; 15 mg/kg PO) of 154 ± 27.6 µM·h, a Cmax ([5]; 15 mg/kg PO) of 34.8 ± 6.5 µM and a Tmax ([5]; 15 mg/kg PO) of 1 h. For the same compound, the half-life ([5]; 15 mg/kg PO) was 5.97 ± 0.35 h, the AUC-INF/Dose ([5]; 50 mg/kg PO) was 2166.1 ± 409.8 h*kg*nmol/mL/mmol and the Cmax/Dose ([5]; 50 mg/kg PO) was 332.0 ± 57.5 kg*nmol/mL/mmol. For the same compound, the AUC(0-inf) ([5]; 50 mg/kg PO) was 413 ± 78.1 µM·h, the Cmax ([5]; 50 mg/kg PO) was 63.3 ± 10.9 µM and the Tmax ([5]; 50 mg/kg PO) was 2.3 ± 1.5 h. For the same compound, the half-life ([5]; 50 mg/kg PO) was 4.3 ± 0.8 h, the “CC” value (IEC-6 cells) was >400 µM and the “CC” value (RAW264.7 cells) was >100 µM. For the same compound, the “CC” value (MA-104 cells) was >380 µM, the “CC” value (HG23 cells) was 100 µM and the EC90 (Pichinde virus) was 0.32 µM. For the same compound, the “CC” value (H9c2 cells) was >400 µM, the EC50 (Measles) was 1.06 µM and the “CC” value (BxPC-3 cells) was >400 µM. For the same compound, the “AUC0->∞/Dose” value ([6]; 5 mg/kg IV) was 5639.4 ± 234.2 h · kg · nmol/mL · mmol, the Cmax/Dose ([6]; 5 mg/kg IV) was 7525.0 ± 6050.9 kg · nmol/mL · mmol and the “AUC0->∞/Dose” value ([6]; 5 mg/kg PO) was 4869.4 ± 841.9 h · kg · nmol/mL · mmol. The Cmax/Dose ([6]; 5 mg/kg PO) was 1054.5 ± 118.8 kg · nmol/mL · mmol, the VD ([6]; 5 mg/kg PO) was 13.0 ± 1.6 L/kg and the “AUC0->∞/Dose” value ([6]; 50 mg/kg PO) was 2923.1 ± 209.6 h · kg · nmol/mL · mmol. It also gave a Cmax/Dose ([6]; 50 mg/kg PO) of 453.0 ± 51.2 kg · nmol/mL · mmol, a VD ([6]; 50 mg/kg PO) of 14.9 ± 1.9 L/kg and a clearance ([6]; guinea pig, plasma, 5 mg/kg IV) of 3 mL/min/kg. The AUC(0-inf) ([6]; guinea pig, 5 mg/kg IV, plasma) was 108 ± 4.5 µM·h, the Cmax ([6]; guinea pig, 5 mg/kg IV, plasma) was 144 ± 115 µM and the Tmax ([6]; guinea pig, 5 mg/kg IV, plasma) was 0.083 h. The half-life ([6]; guinea pig, 5 mg/kg IV, plasma) was 9.3 ± 1.3 h, the AUC(0-inf) ([6]; guinea pig, 5 mg/kg PO, plasma) was 92.9 ± 16.1 µM·h and the Cmax ([6]; guinea pig, 5 mg/kg PO, plasma) was 20.1 ± 2.3 µM. The Tmax ([6]; guinea pig, 5 mg/kg PO, plasma) was 1.3 ± 0.5 h, the half-life ([6]; guinea pig, 5 mg/kg PO, plasma) was 20.1 ± 2.3 h and the AUC(0-inf) [6, 9] was 558 ± 39.9 µM·h. It also gave a Cmax [6, 9] of 86.4 ± 9.8 µM, a Tmax [6, 9] of 1.8 ± 0.5 h and a half-life [6, 9] of 86.4 ± 9.8 h. For the same compound, the EC50 (Mayaro) was 2.81 µM, the EC90 (Mayaro) was 9.5 µM and the EC90 (Poliovirus) was 3.8 µM. The EC50 (Lassa fever virus; HeLa) was 0.45 µM, the EC50 (Lassa fever virus; Huh-7) was 0.9 µM and the EC50 (Lassa fever virus; Vero C1008) was 0.36 µM. The “CC” value (CEM cells) was 107 µM, the “CC” value (BEAS-28/Gal* cells) was 250 µM and the “CC” value (A-204 cells) was >400 µM. For the same compound, the EC50 (Junin virus; HeLa) was 0.02 µM, the EC50 (Junin virus; Huh-7) was 0.25 µM and the EC50 (Junin virus; Vero C1008) was 0.08 µM. For the same compound, the CC50 [7] was 228 µM, the “CC” value (RD cells) was >380 µM and the EC50 (Lujo; HeLa) was 0.07 µM. The EC50 (Lujo; Huh-7) was 1.32 µM, the EC50 (Lujo; Vero C1008) was 0.83 µM and the “CC” value (BEAS-28 cells) was >500 µM. For the same compound, the “CC” value (A549 cells) was >400 µM, the EC90 (EEEV) was 1.79 µM and the “CC” value (MDCK cells) was >380 µM. For the same compound, the “CC” value (MDCK/Gal* cells) was 444 µM, the EC50 (Machupo; HeLa) was 0.07 µM and the EC50 (Machupo; Huh-7) was 0.31 µM. It also gave an EC50 (Machupo; Vero C1008) of 1.49 µM, an AUC-INF/Dose ([8]; 10 mg/kg IP) of 514.5 h*kg*nmol/mL/mmol and a Cmax/Dose ([8]; 10 mg/kg IP) of 202.1 kg*nmol/mL/mmol. For the same compound, the AUC-INF/Dose ([8]; 50 mg/kg PO) was 1215.0 h*kg*nmol/mL/mmol, the Cmax/Dose ([8]; 50 mg/kg PO) was 184.3 kg*nmol/mL/mmol and the AUC-INF/Dose ([8]; 150 mg/kg PO) was 685.8 h*kg*nmol/mL/mmol. For the same compound, the Cmax/Dose ([8]; 150 mg/kg PO) was 76.2 kg*nmol/mL/mmol, the Cmax/Dose ([8]; 500 mg/kg PO) was 39.9 kg*nmol/mL/mmol and the AUC(0-inf) ([8]; 1.5 mg/kg) was 6.58 µM·h. It also gave a Cmax ([8]; 1.5 mg/kg) of 1.2 µM, a half-life ([8]; 1.5 mg/kg) of 17.9 h and an AUC(0-inf) ([8]; 5 mg/kg) of 28.6 µM·h. The Cmax ([8]; 5 mg/kg) was 7.1 µM, the half-life ([8]; 5 mg/kg) was 15.2 h and the AUC(0-inf) ([8]; 15 mg/kg) was 86.9 µM·h. It also gave a Cmax ([8]; 15 mg/kg) of 23.3 µM, a half-life ([8]; 15 mg/kg) of 20.3 h and a half-life ([8]; 50 mg/kg) of 8.28 h. For the same compound, the Tmax ([8]; 150 mg/kg) was 1 h, the half-life ([8]; 150 mg/kg) was 8.46 h and the Tmax ([8]; 500 mg/kg) was 1 h.
For `CC(C)C(=O)OC[C@@]1(F)OC(n2ccc(=O)[nH]c2=O)C(O)[C@@H]1O` (stereo partly drawn) [EIDD-2947, [(2S, 3S)-5-(2,4-dioxopyrimidin-1-yl)-2-fluoro-3,4-dihydroxy-tetrahydrofuran-2-yl]methyl 2-methylpropanoate], the half-life [2] was 0.733 h.
